Read-outs that look alike come from different tables or passages of the source.
Key:
[1] = target: human aldose reductase (hALR2) (Homo sapiens, UniProt P15121); assay: Inhibition of human aldose reductase (hALR2), methods similar to Butera et al.; assay type: biochemical; conditions: for HALR1/hALR2: ratio of hALR1 IC50 to hALR2 IC50 (selectivity)
Experimental: Representative compounds of Formula Iwere tested for their potency, selectivity and efficacy as inhibitors of human aldose reductase.
(§1) Since high potency of test compounds as inhibitors of aldose reductase is desirable, low hALR2 IC50 values are sought. On the other hand, high potency of test compounds as inhibitors of aldehyde reductase is undesirable, and high ALR1 IC50s values are sought. Accordingly, the hALR1/hALR2 ratio is used to determine the selectivity of the test compounds. The importance of this selectivity is Described in Kotani, et al., J. Med. Chem. 40: 684, 1997.

[2] = target: T1, human aldehyde reductase (hALR1) (Homo sapiens, UniProt P14550); assay: Inhibition of human aldehyde reductase (hALR1), methods of Ishii et al.; assay type: biochemical
T1 sequence (P14550 1-325): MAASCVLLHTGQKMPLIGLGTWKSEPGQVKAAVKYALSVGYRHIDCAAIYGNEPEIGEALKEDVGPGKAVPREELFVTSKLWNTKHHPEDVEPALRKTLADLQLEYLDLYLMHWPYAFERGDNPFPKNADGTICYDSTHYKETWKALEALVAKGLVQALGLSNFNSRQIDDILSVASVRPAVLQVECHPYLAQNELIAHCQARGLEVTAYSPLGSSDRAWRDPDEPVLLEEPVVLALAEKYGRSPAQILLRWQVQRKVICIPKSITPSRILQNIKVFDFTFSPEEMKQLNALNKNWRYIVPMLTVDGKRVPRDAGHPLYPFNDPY
Experimental: In a second assay, a number of the same compounds were tested for their ability to inhibit aldehyde reductase (hALR1), a structurally related enzyme.
as §1, with “compounds.” for “compounds. The importance of this selectivity is Described in Kotani, et al., J. Med. Chem. 40: 684, 1997.”

SMILES | IC50 [1] | HALR1/hALR2 [1] | IC50 [2] | IC50 ([2]; read-out: HALR1 (IC50)) | IC50 ([1]; read-out: hALR2 (IC50))
Cc1ccc2c(c1)c(Cc1nc3cc(C(F)(F)F)ccc3s1)cn2CC(=O)O [Example 12, 5-Methyl-3-(5-Trifluoromethylbenzothiazol-2-yl)methyl-indole-N-acetic Acid] | 102 nM | 98 | 10000 nM | – | –
O=C(O)Cn1cc(Cc2cccc([N+](=O)[O-])c2)c2ccccc21 [Example 13, 3-(3-nitrophenyl)methyl-indole-N-acetic Acid] | 73 nM | 178 | – | 13000 nM | –
O=C(O)Cn1cc(Cc2nc3c(F)c(F)cc(F)c3s2)c2ccc(-c3ccccc3)cc21 [Example 16, 6-phenyl-3-(4,5,7-trifluorobenzothiazol-2-yl)methyl-indole-N-acetic Acid] | 25 nM | 248 | 6200 nM | – | –
O=C(O)Cn1cc(Cc2nc3c(F)c(F)cc(F)c3s2)c2ccc(N3CCOCC3)cc21 [Example 18, 6-morpholino-3-(4,5,7-trifluorobenzothiazol-2-yl) methyl-indole-N-acetic Acid] | – | >6,700 | – | > 100000 nM | 15 nM
O=C(O)Cn1cc(Cc2nc3cc(F)ccc3s2)c2ccccc21 [Example 23, 3-[5-Fluorbenzothiazole-2-yl]methyl-indole-N-acetic Acid] | 9 nM | 720 | 6500 nM | – | –
CC(C(=O)O)n1cc(Cc2nc3c(F)c(F)cc(F)c3s2)c2ccccc21 (stereo not drawn) [Example 25, 3-(4.5,7-trifluorobenzothiazol-2-yl)methyl-indole-N-2-propionic Acid] | 160 nM | – | – | – | –
O=C(O)CCn1cc(Cc2nc3c(F)c(F)cc(F)c3s2)c2ccccc21 [Example 26, 3-(4-5.7-trifluorobenzothiazol-2-yl)methyl-indole-N-3-propionic Acid] | 17 nM | – | – | – | –
O=C(O)Cn1cc(Cc2nc3cc(C(F)(F)F)ccc3s2)c2ccc(Br)cc21 [Example 27, 6-Bromo-3-(5-trifluoromethylbenzothiazol-2-yl)methyl-indole-N-acetic acid] | 52 nM | <96 | < 5000 nM | – | –
COc1ccc2c(Cc3nc4c(F)c(F)cc(F)c4s3)cn(CC(=O)O)c2c1 [Example 28, 6-Methoxy-3-(4,5,7-trifluorobenzothiazol-2-yl)methyl-indole-N-acetic acid] | 5 nM | – | – | – | –
O=C(O)Cn1cc(Cc2nc3c(F)c(F)cc(F)c3s2)c2c(Cl)cccc21 [Example 29, 4-Chloro-3-(4,5,7-trifluorobenzothiazol-2yl) methyl-indole-N-acetic Acid] | 11 nM | – | – | – | –
COc1ccc2c(c1)c(Cc1nc3c(F)c(F)cc(F)c3s1)cn2CC(=O)O [Example 30, 5-Methoxy-3-(4,5,7-trifluorobenzothiazol-2-yl) methyl-indole-N-acetic Acid] | 7.7 nM | – | – | – | –
O=C(O)Cn1cc(Cc2nc3c(F)c(F)cc(F)c3s2)c2cc(Br)ccc21 [Example 31, 5-Bromo-3-(4,5.7-trifluorobenzothiazol-2-yl) methyl-indole-N-acetic acid] | 13 nM | 746 | 9700 nM | – | –
O=C(O)Cn1cc(Cc2nc3ccc(Cl)cc3s2)c2ccccc21 [Example 32, 3-(6-chlorobenzothiazol-2-yl) methyl-indole-N-acetic Acid] | 660 nM | – | – | – | –
